Data from patent US4446325A, “1,4-Dihydropyridine compounds” (priority 1981, dated 1984).

Tests used:
coronary artery = assay: Blood flow increasing activity in coronary artery of anesthetized dog (intravenous); type: in vivo; conditions: i.v.
Protocol: (§1) A dog was anesthetized with pentobarital sodium at a dose of 30 mg/kg (intravenous injection) and, under artificial respiration, the blood flow in the coronary, vertebral and femoral arteries was determined using an electromagnetic blood-flow meter. The blood pressure was also measured simultaneously. The test compound was dissolved in ethanol at a concentration of 1% by weight of the compound and then diluted to a volume of 10 times with a 80% aqueous solution of polyethylene glycol 400. The resulting solution was further diluted with a 0.9% physiological saline solution and administered intravenously into the femoral vein at a dose shown in Tables 1 and 2.

vertebral artery = assay: Blood flow increasing activity in vertebral artery of anesthetized dog (intravenous); type: in vivo; conditions: i.v.
Protocol: as §1

femoral artery = assay: Blood flow increasing activity in femoral artery of anesthetized dog (intravenous); type: in vivo; conditions: i.v.
Protocol: as §1

[1] = system: enucleated heart of guinea-pig; assay: Effect on heart systole, enucleated heart of guinea-pig (Langendorf method)
Protocol: (§2) The effects of the compounds of this invention on the heat systole and the perfusion volume in the coronary artery in enucleated heart of guinea-pig were determined in accordance with the Langendorf method.

[2] = system: coronary artery in enucleated heart of guinea-pig; assay: Effect on perfusion volume in coronary artery, enucleated heart of guinea-pig (Langendorf method)
Protocol: as §2

[3] = Stability to light (sun light, quartz dish, visual appearance); type: physicochemical; set-up: key to Change in appearance on light exposure: (-): No change
in vivo = conditions: mouse, oral, ddy male mice, mortality one week after administration
[4] = system: coronary, vertebral and femoral arteries; assay: Blood flow increasing / vasodilating activity in coronary, vertebral and femoral arteries (overall statements); type: in vivo, dog; conditions: Table 2
Protocol: as §1

blood pressure = assay: Blood pressure measured simultaneously with blood flow in anesthetized dog; type: in vivo; conditions: i.v.
Protocol: as §1

[5] = cited from earlier work
[6] = background statement; cited from earlier work
[7] = exposure for a total of 8 hours
[8] = 3 mg/kg, Table 2 (separate test)

Structure (SMILES): COC(=O)C1=C(C)NC(C)=C(C(=O)OCC2(C)OCCO2)C1c1cccc([N+](=O)[O-])c1 (stereo not drawn) [Compound A, Methyl 2,2-ethylenedioxypropyl 2,6-dimethyl-4-(3-nitrophenyl)-1,4-dihydropyridine-3,5-dicarboxylate]
- Duration of Activity, Coronary Artery (coronary artery; 1 mg/kg, Table 1): 5.5
- Total Increase in Blood Flow, Coronary Artery (coronary artery; 1 mg/kg, Table 1): 22 mL
- Duration of Activity, Coronary Artery (coronary artery; 3 mg/kg, Table 1): 17.5
- Total Increase in Blood Flow, Coronary Artery (coronary artery; 3 mg/kg, Table 1): 164 mL
- Duration of Activity, Vertebral Artery (vertebral artery; 1 mg/kg, Table 1): 11.7
- Total Increase in Blood Flow, Vertebral Artery (vertebral artery; 1 mg/kg, Table 1): 64 mL
- Duration of Activity, Vertebral Artery (vertebral artery; 3 mg/kg, Table 1): 27.3
- Total Increase in Blood Flow, Vertebral Artery (vertebral artery; 3 mg/kg, Table 1): 288 mL
- Duration of Activity, Femoral Artery (femoral artery; 1 mg/kg, Table 1): 9.0
- Total Increase in Blood Flow, Femoral Artery (femoral artery; 1 mg/kg, Table 1): 104 mL
- Duration of Activity, Femoral Artery (femoral artery; 3 mg/kg, Table 1): 19.3
- Total Increase in Blood Flow, Femoral Artery (femoral artery; 3 mg/kg, Table 1): 316 mL
- Effects on Heart Systole: Duration of Effect ([1]; dose 1 × 10^-6 g): 4.6 min
- Effects on Heart Systole: Duration of Effect ([1]; dose 1 × 10^-7 g): 1.3 min
- Effects on Coronary Artery: Duration of Effect ([2]; dose 1 × 10^-6 g): 34.6 min
- Effects on Coronary Artery: Total Perfusion Volume ([2]; dose 1 × 10^-6 g): 737.8 drops
- Effects on Coronary Artery: Duration of Effect ([2]; dose 1 × 10^-7 g): 15.6 min
- Effects on Coronary Artery: Total Perfusion Volume ([2]; dose 1 × 10^-7 g): 165.0 drops
- Change in appearance on light exposure ([3]; 5 min. sun light): (-)
- Change in appearance on light exposure ([3]; 1 hour sun light): (-)
- Change in appearance on light exposure ([3]; 2 hours sun light): (-)
- Change in appearance on light exposure ([3]; 3 hours sun light): (-)
- changes on light exposure [3, 7]: did not show any changes

Structure (SMILES): COC(=O)C1=C(C)NC(C)=C(C(=O)OCC(C)=O)C1c1ccccc1[N+](=O)[O-] (stereo not drawn) [Compound B, Methyl 2-oxopropyl 2,6-dimethyl-4-(2-nitrophenyl)-1,4-dihydropyridine-3,5-dicarboxylate]
- Duration of Activity, Coronary Artery (coronary artery; 1 mg/kg, Table 1): 10.0
- Total Increase in Blood Flow, Coronary Artery (coronary artery; 1 mg/kg, Table 1): 37 mL
- Duration of Activity, Coronary Artery (coronary artery; 3 mg/kg, Table 1): 35.0
- Total Increase in Blood Flow, Coronary Artery (coronary artery; 3 mg/kg, Table 1): 392 mL
- Duration of Activity, Vertebral Artery (vertebral artery; 1 mg/kg, Table 1): 7.5
- Total Increase in Blood Flow, Vertebral Artery (vertebral artery; 1 mg/kg, Table 1): 29 mL
- Duration of Activity, Vertebral Artery (vertebral artery; 3 mg/kg, Table 1): 35.5
- Total Increase in Blood Flow, Vertebral Artery (vertebral artery; 3 mg/kg, Table 1): 309 mL
- Duration of Activity, Femoral Artery (femoral artery; 1 mg/kg, Table 1): 4.0
- Total Increase in Blood Flow, Femoral Artery (femoral artery; 1 mg/kg, Table 1): 20 mL
- Duration of Activity, Femoral Artery (femoral artery; 3 mg/kg, Table 1): 58.5
- Total Increase in Blood Flow, Femoral Artery (femoral artery; 3 mg/kg, Table 1): 774 mL

Structure (SMILES): COC(=O)C1=C(C)NC(C)=C(C(=O)OCC2CC2)C1c1cccc([N+](=O)[O-])c1 (stereo not drawn) [Compound C, Cyclopropylmethyl methyl 2,6-dimethyl-4-(3-nitrophenyl)-1,4-dihydropyridine-3,5-dicarboxylate]
- Duration of Activity, Coronary Artery (coronary artery; [8]): 49
- Total Increase in Blood Flow, Coronary Artery (coronary artery; [8]): 580 mL
- Duration of Activity, Coronary Artery (coronary artery; 10 mg/kg, Table 2): 66
- Total Increase in Blood Flow, Coronary Artery (coronary artery; 10 mg/kg, Table 2): 2772 mL
- Duration of Activity, Vertebral Artery (vertebral artery; [8]): 37
- Total Increase in Blood Flow, Vertebral Artery (vertebral artery; [8]): 463 mL
- Duration of Activity, Vertebral Artery (vertebral artery; 10 mg/kg, Table 2): 78
- Total Increase in Blood Flow, Vertebral Artery (vertebral artery; 10 mg/kg, Table 2): 1691 mL
- Duration of Activity, Femoral Artery (femoral artery; [8]): 26
- Total Increase in Blood Flow, Femoral Artery (femoral artery; [8]): 367 mL
- Duration of Activity, Femoral Artery (femoral artery; 10 mg/kg, Table 2): 60
- Total Increase in Blood Flow, Femoral Artery (femoral artery; 10 mg/kg, Table 2): 811 mL
- LD50 at 168 h (in vivo): 1450 mg/kg
- Change in appearance on light exposure ([3]; 5 min. sun light): (-)
- Change in appearance on light exposure ([3]; 1 hour sun light): (-)
- Change in appearance on light exposure ([3]; 2 hours sun light): (-)
- Change in appearance on light exposure ([3]; 3 hours sun light): (-)
- Change in appearance on light exposure ([3]; 8 hours sun light): (-)
- changes on light exposure [3, 7]: did not show any changes
- duration of vasodilation effect compared with Compound F [4]: significantly higher
- vasodilation effect compared with Compound F [4]: significantly higher

Structure (SMILES): CCOC(=O)C1=C(C)NC(C)=C(C(=O)OCC2CC2)C1c1cccc([N+](=O)[O-])c1 (stereo not drawn) [Compound D, Cyclopropylmethyl ethyl 2,6-dimethyl-4-(3-nitrophenyl)-1,4-dihydropyridine-3,5-dicarboxylate]
- Duration of Activity, Coronary Artery (coronary artery; [8]): 32
- Total Increase in Blood Flow, Coronary Artery (coronary artery; [8]): 308 mL
- Duration of Activity, Vertebral Artery (vertebral artery; [8]): 17
- Total Increase in Blood Flow, Vertebral Artery (vertebral artery; [8]): 212 mL
- Duration of Activity, Femoral Artery (femoral artery; [8]): 16
- Total Increase in Blood Flow, Femoral Artery (femoral artery; [8]): 173 mL
- LD50 at 168 h (in vivo): 2000 mg/kg
- Change in appearance on light exposure ([3]; 5 min. sun light): (-)
- Change in appearance on light exposure ([3]; 1 hour sun light): (-)
- Change in appearance on light exposure ([3]; 2 hours sun light): (-)
- Change in appearance on light exposure ([3]; 3 hours sun light): (-)
- Change in appearance on light exposure ([3]; 8 hours sun light): (-)
- changes on light exposure [3, 7]: did not show any changes

Structure (SMILES): CCCOC(=O)C1=C(C)NC(C)=C(C(=O)OCC2CC2)C1c1cccc([N+](=O)[O-])c1 (stereo not drawn) [Compound E, Cyclopropylmethyl propyl 2,6-dimethyl-4-(3-nitrophenyl)-1,4-dihydropyridine-3,5-dicarboxylate]
- Duration of Activity, Coronary Artery (coronary artery; [8]): 22
- Total Increase in Blood Flow, Coronary Artery (coronary artery; [8]): 148 mL
- Duration of Activity, Vertebral Artery (vertebral artery; [8]): 19
- Total Increase in Blood Flow, Vertebral Artery (vertebral artery; [8]): 262 mL
- Duration of Activity, Femoral Artery (femoral artery; [8]): 20
- Total Increase in Blood Flow, Femoral Artery (femoral artery; [8]): 285 mL
- LD50 at 168 h (in vivo): 2000 mg/kg
- Change in appearance on light exposure ([3]; 5 min. sun light): (-)
- Change in appearance on light exposure ([3]; 1 hour sun light): (-)
- Change in appearance on light exposure ([3]; 2 hours sun light): (-)
- Change in appearance on light exposure ([3]; 3 hours sun light): (-)
- Change in appearance on light exposure ([3]; 8 hours sun light): (-)
- changes on light exposure [3, 7]: did not show any changes

Structure (SMILES): COC(=O)C1=C(C)NC(C)=C(C(=O)OCC(C)C)C1c1ccccc1[N+](=O)[O-] (stereo not drawn) [Compound F, Isobutyl methyl 2,6-dimethyl-4-(2-nitrophenyl)-1,4-dicarboxylate, reference compound]
- Duration of Activity, Coronary Artery (coronary artery; [8]): 31
- Total Increase in Blood Flow, Coronary Artery (coronary artery; [8]): 353 mL
- Duration of Activity, Coronary Artery (coronary artery; 10 mg/kg, Table 2): 55
- Total Increase in Blood Flow, Coronary Artery (coronary artery; 10 mg/kg, Table 2): 863 mL
- Duration of Activity, Vertebral Artery (vertebral artery; [8]): 34
- Total Increase in Blood Flow, Vertebral Artery (vertebral artery; [8]): 347 mL
- Duration of Activity, Femoral Artery (femoral artery; [8]): 27
- Total Increase in Blood Flow, Femoral Artery (femoral artery; [8]): 365 mL
- Duration of Activity, Femoral Artery (femoral artery; 10 mg/kg, Table 2): 58
- Total Increase in Blood Flow, Femoral Artery (femoral artery; 10 mg/kg, Table 2): 874 mL
- LD50 at 168 h (in vivo): 465 mg/kg
- color changes on light exposure ([3]; 5 minutes' exposure): slight color changes
- changes on light exposure ([3]; after more than 5 minutes' exposure ("thereafter")): marked changes

Structure (SMILES): COC(=O)C1=C(C)NC(C)=C(C(=O)OC)C1c1ccccc1[N+](=O)[O-] [Compound H, Dimethyl 2,6-dimethyl-4-(2-nitrophenyl)-1,4-dihydropyridine-3,5-dicarboxylate, reference compound]
- Duration of Activity, Coronary Artery (coronary artery; 1 mg/kg, Table 1): 3.9
- Total Increase in Blood Flow, Coronary Artery (coronary artery; 1 mg/kg, Table 1): 30 mL
- Duration of Activity, Coronary Artery (coronary artery; 3 mg/kg, Table 1): 9.3
- Total Increase in Blood Flow, Coronary Artery (coronary artery; 3 mg/kg, Table 1): 107 mL
- Duration of Activity, Coronary Artery (coronary artery; [8]): 11
- Total Increase in Blood Flow, Coronary Artery (coronary artery; [8]): 146 mL
- Duration of Activity, Coronary Artery (coronary artery; 10 mg/kg, Table 2): 40
- Total Increase in Blood Flow, Coronary Artery (coronary artery; 10 mg/kg, Table 2): 536 mL
- Duration of Activity, Vertebral Artery (vertebral artery; 1 mg/kg, Table 1): 8.0
- Total Increase in Blood Flow, Vertebral Artery (vertebral artery; 1 mg/kg, Table 1): 66 mL
- Duration of Activity, Vertebral Artery (vertebral artery; 3 mg/kg, Table 1): 16.0
- Total Increase in Blood Flow, Vertebral Artery (vertebral artery; 3 mg/kg, Table 1): 190 mL
- Duration of Activity, Vertebral Artery (vertebral artery; [8]): 15
- Total Increase in Blood Flow, Vertebral Artery (vertebral artery; [8]): 131 mL
- Duration of Activity, Vertebral Artery (vertebral artery; 10 mg/kg, Table 2): 46
- Total Increase in Blood Flow, Vertebral Artery (vertebral artery; 10 mg/kg, Table 2): 640 mL
- Duration of Activity, Femoral Artery (femoral artery; 1 mg/kg, Table 1): 6.0
- Total Increase in Blood Flow, Femoral Artery (femoral artery; 1 mg/kg, Table 1): 34 mL
- Duration of Activity, Femoral Artery (femoral artery; 3 mg/kg, Table 1): 21.5
- Total Increase in Blood Flow, Femoral Artery (femoral artery; 3 mg/kg, Table 1): 618 mL
- Duration of Activity, Femoral Artery (femoral artery; [8]): 12
- Total Increase in Blood Flow, Femoral Artery (femoral artery; [8]): 119 mL
- Duration of Activity, Femoral Artery (femoral artery; 10 mg/kg, Table 2): 54
- Total Increase in Blood Flow, Femoral Artery (femoral artery; 10 mg/kg, Table 2): 825 mL
- blood pressure lowering activity (blood pressure): found to have a blood pressure lowering activity
- Effects on Heart Systole: Duration of Effect ([1]; dose 1 × 10^-6 g): 14.5 min
- Effects on Heart Systole: Duration of Effect ([1]; dose 1 × 10^-7 g): 2.9 min
- Effects on Coronary Artery: Duration of Effect ([2]; dose 1 × 10^-6 g): 21.3 min
- Effects on Coronary Artery: Total Perfusion Volume ([2]; dose 1 × 10^-6 g): 192.8 drops
- Effects on Coronary Artery: Duration of Effect ([2]; dose 1 × 10^-7 g): 17.2 min
- Effects on Coronary Artery: Total Perfusion Volume ([2]; dose 1 × 10^-7 g): 91.2 drops
- duration of vasodilating activity ([5]; background statement): still unsatisfactory
- side-effects [6]: still unsatisfactory

Structure (SMILES): CCOC(=O)C1=C(C)NC(C)=C(C(=O)OC2CCCCC2)C1c1cccc([N+](=O)[O-])c1 (stereo not drawn) [cyclohexyl ethyl 2,6-dimethyl-4-(3-nitrophenyl)-1,4-dihydropyridine-3,5-dicarboxylate]
- activities, reported ([5]; German OLS Nos. 2,117,571 and 2,117,573): weak activities
